Source: patent US20080057134A1, “Antifungal compositions and method” (AgION Technologies, Inc., priority 2006, published 2008)

System: Aspergillus niger
Test: Direct inoculation fungal testing of coated filter paper (modified ASTM G21)
Type: cell-based
Settings: text summary of Tables 1 and 2, Aspergillus niger

Cc1cc(CC(C)CC(C)(C)C)n(O)c(=O)c1.NCCO (stereo not shown) [picrotone olamine, monoethanolamine salt of hydroxymethyl trimethylpentyl pyridone]
antifungal properties / bioefficacy in words: excellent to good antifungal properties
